The text below walks through data of US20240083857A1, “2-Methyl-Quinazolines” (Bayer Pharma Aktiengesellschaft, priority 2017, published 2024).

Test [1] deals with Epidermal Growth Factor Receptor (EGFR) (Homo sapiens (Human), UniProt P00533). The test is described as follows: EGFR kinase assay (TR-FRET). Type of test: biochemical. Conditions: E-notation values; unit inferred; read-out: EGFR-assay IC50. An outline of the steps: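 Read-out is the 665/620 nm HTRF ratio, from a Tb-cryptate anti-phosphotyrosine antibody and streptavidin-XL665 bound to phosphorylated biotin-peptide substrate. The enzyme, A431-derived EGFR (~3 U/ml), was given 15 min compound pre-binding at 22° C in Hepes pH 7.0 with Mg2+/Mn2+ before reaction.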
Sequence of Epidermal Growth Factor Receptor (EGFR) (P00533 25-1210): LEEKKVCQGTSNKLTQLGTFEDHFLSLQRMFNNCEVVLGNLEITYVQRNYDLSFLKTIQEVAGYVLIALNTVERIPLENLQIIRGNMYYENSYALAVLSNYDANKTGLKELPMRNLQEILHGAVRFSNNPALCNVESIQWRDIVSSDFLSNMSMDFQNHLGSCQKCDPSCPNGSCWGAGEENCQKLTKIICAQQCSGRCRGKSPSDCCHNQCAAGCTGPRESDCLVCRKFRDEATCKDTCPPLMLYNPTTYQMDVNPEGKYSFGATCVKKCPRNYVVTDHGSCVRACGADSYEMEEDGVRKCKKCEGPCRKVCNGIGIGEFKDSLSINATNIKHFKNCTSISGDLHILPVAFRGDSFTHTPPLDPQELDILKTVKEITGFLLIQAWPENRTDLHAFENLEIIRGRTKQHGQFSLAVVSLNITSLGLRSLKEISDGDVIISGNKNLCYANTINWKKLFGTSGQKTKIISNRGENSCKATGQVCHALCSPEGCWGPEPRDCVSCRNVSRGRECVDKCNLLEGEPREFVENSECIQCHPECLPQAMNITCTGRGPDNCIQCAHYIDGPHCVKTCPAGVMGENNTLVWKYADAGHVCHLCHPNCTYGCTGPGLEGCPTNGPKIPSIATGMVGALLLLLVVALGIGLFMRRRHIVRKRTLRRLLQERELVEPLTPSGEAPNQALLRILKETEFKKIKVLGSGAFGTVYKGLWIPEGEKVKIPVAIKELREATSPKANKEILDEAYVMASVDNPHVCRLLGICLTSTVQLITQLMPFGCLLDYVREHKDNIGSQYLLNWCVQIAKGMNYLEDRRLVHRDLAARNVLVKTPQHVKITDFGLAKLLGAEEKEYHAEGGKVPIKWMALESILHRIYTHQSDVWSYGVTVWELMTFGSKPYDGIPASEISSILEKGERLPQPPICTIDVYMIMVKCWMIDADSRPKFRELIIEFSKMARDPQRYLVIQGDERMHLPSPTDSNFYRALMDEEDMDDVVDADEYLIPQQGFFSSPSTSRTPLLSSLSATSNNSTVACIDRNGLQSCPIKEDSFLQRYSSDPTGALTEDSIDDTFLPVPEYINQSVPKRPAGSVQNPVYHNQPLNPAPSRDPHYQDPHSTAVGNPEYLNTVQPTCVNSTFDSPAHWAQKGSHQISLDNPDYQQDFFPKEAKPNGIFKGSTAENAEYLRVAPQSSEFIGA
In general terms: TR-FRET usually uses a lanthanide donor and a delayed reading to cut background.

Test [2] has as its target human SOS1 (loading of human K-Ras^G12C-GDP with fluorescent GTP-analog) (Homo sapiens, UniProt Q07889). The test is described as follows: Biochemical assay 3: K-Ras^G12C activation assay by hSOS1 (HTRF). Conditions: E-notation values; unit inferred; read-out: Assay 3 (KRAS-Activation) IC50.

pIC50: −log10 of the molar value. A value given as a limit tells only on which side of the number the result lay.

Usually pIC50 stands for −log10 of the IC50, conventionally taken in molar units. As to `Cc1nc(NC(C)c2ccc(-c3ccccc3CN(C)C)s2)c2cc(N3CCC(N(C)C)C3)ccc2n1` (centres unmarked) [Example 418, N-[1-(5-{2-[(dimethylamino)methyl]phenyl}thiophen-2-yl)ethyl]-6-[3-(dimethylamino)pyrrolidin-1-yl]-2-methylquinazolin-4-amine], the negative logarithm of the IC50 (pIC50) in test [1] is less than 4.70; in test [2], 7.35.

For `Cc1nc(NC(C)c2ccc(Br)s2)c2cc(N3CCCC3)ccc2n1` (centres unmarked) [Example 419, N-[1-(5-bromothiophen-2-yl)ethyl]-2-methyl-6-(pyrrolidin-1-yl)quinazolin-4-amine], the negative-log IC50 (pIC50) is less than 4.70 in test [1] and 4.84 in test [2].

Consider `CC(=O)Nc1ccc2nc(C)nc(NC(C)c3ccc(-c4ccccc4CN(C)C)s3)c2c1` (centres unmarked) [Example 420, N-(4-{[1-(5-{2-[(dimethylamino)methyl]phenyl}thiophen-2-yl)ethyl]amino}-2-methylquinazolin-6-yl)acetamide], for which the pIC50 is less than 4.70 in test [1] and 6.24 in test [2].

As for `COc1ccc(-c2ccc(C(C)Nc3nc(C)nc4cc(OC)c(OC)cc34)s2)c(C)c1` (centres unmarked) [Example 422, 6,7-dimethoxy-N-{1-[5-(4-methoxy-2-methylphenyl)thiophen-2-yl]ethyl}-2-methylquinazolin-4-amine], the pIC50 is less than 4.70 in test [1] and 5.44 in test [2].

Take `Cc1nc(NC(C)c2ccc(-c3ccccc3CN(C)C)s2)c2cc(N)ccc2n1` (centres unmarked) [Example 423, N4-[1-(5-{2-[(dimethylamino)methyl]phenyl}-2-thienyl)ethyl]-2-methylquinazoline-4,6-diamine]: the pIC50 in test [1] was less than 4.70; in test [2], 6.52.

On to `Cc1nc(NC(C)c2ccc(Br)s2)c2cc(N3CCN(Cc4cccnc4)CC3)ccc2n1` (centres unmarked) [Example 424, N-[1-(5-bromothiophen-2-yl)ethyl]-2-methyl-6-[4-(pyridin-3-ylmethyl)piperazin-1-yl]quinazolin-4-amine], for which the negative-log IC50 (pIC50) was less than 4.70 in test [1] and 5.42 in test [2].

As for `Cc1nc(NC(C)c2ccc(Br)s2)c2cc(NCCN3CCOCC3)ccc2n1` (stereo not drawn) [Example 425, N4-[l-(5-bromo-2-thienyl)ethyl]-2-methyl-N6-[2-(morpholin-4-yl)ethyl]quinazoline-4,6-diamine], the negative-log IC50 (pIC50) in test [1] was less than 4.70; in test [2], 4.95.

With `Cc1nc(NC(C)c2ccc(-c3ccccc3CN(C)C)s2)c2cc(N3CCN(Cc4cccnc4)CC3)ccc2n1` (centres unmarked) [Example 426, N-[1-(5-{2-[(dimethylamino)methyl]phenyl}thiophen-2-yl)ethyl]-2-methyl-6-[4-(pyridin-3-ylmethyl)piperazin-1-yl]quinazolin-4-amine], the negative logarithm of the IC50 (pIC50) in test [1] was 5.31; in test [2], 7.50.

As for `CC(=O)NCCNc1ccc2nc(C)nc(NC(C)c3ccc(-c4ccccc4CN(C)C)s3)c2c1` (centres unmarked) [Example 427, N-{2-[(4-{[1-(5-{2-[(dimethylamino)methyl]phenyl}thiophen-2-yl)ethyl]amino}-2-methylquinazolin-6-yl)amino]ethyl}acetamide], the pIC50 in test [1] is less than 4.70; in test [2], 7.13.

Turning to `COc1cc2nc(C)nc(NC(C)c3sc(Br)cc3Cl)c2cc1OC` (centres unmarked) [Example 428, N-[1-(5-bromo-3-chlorothiophen-2-yl)ethyl]-6,7-dimethoxy-2-methylquinazolin-4-amine], the pIC50 was less than 4.70 in test [1] and 5.99 in test [2].

Regarding `COc1cc2nc(C)nc(NC(C)c3sc(-c4ccccc4CNC(=O)OC(C)(C)C)cc3Cl)c2cc1OC` (centres unmarked) [Example 429, tert-butyl [2-(4-chloro-5-{1-[(6,7-dimethoxy-2-methylquinazolin-4-yl)amino]ethyl}thiophen-2-yl)benzyl]carbamate], the pIC50 in test [1] is less than 4.70; in test [2], 5.30.

Consider `COc1cc2nc(C)nc(NC(C)c3cc(Cl)c(-c4ccccc4CN)s3)c2cc1OC` (centres unmarked) [Example 430, N-[1-{5-[2-(aminomethyl)phenyl]-4-chlorothiophen-2-yl}ethyl]-6,7-dimethoxy-2-methylquinazolin-4-amine], for which the results for the negative logarithm of the IC50 (pIC50) in test [1] and in test [2] were less than 4.70 and 6.23, respectively.

For the compound `COc1cc2nc(C)nc(NC(C)c3cc(Cl)c(-c4ccccc4CN(C)C)s3)c2cc1OC` (centres unmarked) [Example 431, N-[1-(4-chloro-5-{2-[(dimethylamino)methyl]phenyl}thiophen-2-yl)ethyl]-6,7-dimethoxy-2-methylquinazolin-4-amine], the pIC50 is less than 4.70 in test [1] and 6.52 in test [2].

With `COc1cc2nc(C)nc(NC(C)c3cc(Cl)c(Br)s3)c2cc1OC` (centres unmarked) [Example 432, N-[1-(5-bromo-4-chlorothiophen-2-yl)ethyl]-6,7-dimethoxy-2-methylquinazolin-4-amine], the pIC50 in test [1] and in test [2] was less than 4.70 throughout.

In the case of `Cc1nc(NC(C)c2ccc(-c3ccccc3CN(C)C)s2)c2cc(NCCN3CCOCC3)ccc2n1` (centres unmarked) [Example 433, N4-[1-(5-{2-[(dimethylamino)methyl]phenyl}-2-thienyl)ethyl]-2-methyl-N6-[2-(morpholin-4-yl)ethyl]quinazoline-4,6-diamine], the results for the pIC50 in test [1] and in test [2] were less than 4.70 and 7.11, respectively.

With `Cc1nc(NC(C)c2ccc(Br)s2)c2cc(N3CCN(C)C(=O)C3)ccc2n1` (centres unmarked) [Example 434, 4-(4-{[1-(5-bromothiophen-2-yl)ethyl]amino}-2-methylquinazolin-6-yl)-1-methylpiperazin-2-one], the pIC50 in test [1] was 4.78; in test [2], 5.55.

Turning to `Cc1nc(NC(C)c2ccc(-c3ccccc3CN(C)C)s2)c2cc(N3CCN(C)C(=O)C3)ccc2n1` (centres unmarked) [Example 435, 4-(4-{[1-(5-{2-[(dimethylamino)methyl]phenyl}thiophen-2-yl)ethyl]amino}-2-methylquinazolin-6-yl)-1-methylpiperazin-2-one], the negative logarithm of the IC50 (pIC50) in test [1] was less than 4.70; in test [2] it was 7.16.

As for `COC(=O)C(C)(C)c1ccccc1-c1ccc(C(C)Nc2nc(C)nc3cc(OC)c(OC)cc23)s1` (centres unmarked) [Example 436, methyl 2-[2-(5-{1-[(6,7-dimethoxy-2-methylquinazolin-4-yl)amino]ethyl}thiophen-2-yl)phenyl]-2-methylpropanoate], the results for the pIC50 in test [1] and in test [2] were less than 4.70 and 5.75, respectively.

In the case of `COc1cc2nc(C)nc(NC(C)c3sc(-c4ccccc4CN)cc3Cl)c2cc1OC` (centres unmarked) [Example 437, N-[1-{5-[2-(aminomethyl)phenyl]-3-chlorothiophen-2-yl}ethyl]-6,7-dimethoxy-2-methylquinazolin-4-amine], the pIC50 is less than 4.70 in test [1] and 6.80 in test [2].

In the case of `Cc1nc(NC(C)c2ccc(-c3ccccc3CN(C)C)s2)c2cc(NS(C)(=O)=O)ccc2n1` (centres unmarked) [Example 438, N-(4-{[1-(5-{2-[(dimethylamino)methyl]phenyl}thiophen-2-yl)ethyl]amino}-2-methylquinazolin-6-yl)methanesulfonamide], the pIC50 was less than 4.70 in test [1] and 6.94 in test [2].

Regarding `COc1ccc(-c2ccc(C(C)Nc3nc(C)nc4cc(OC)c(OC)cc34)s2)c(CN(C)C)c1` (centres unmarked) [Example 439, N-[1-(5-{2-[(dimethylamino)methyl]-4-methoxyphenyl}thiophen-2-yl)ethyl]-6,7-dimethoxy-2-methylquinazolin-4-amine], the negative-log IC50 (pIC50) is less than 4.70 in test [1] and 6.64 in test [2].

As to `Cc1nc(NC(C)c2ccc(-c3ccccc3CN(C)C)s2)c2cc(NC(=O)N(C)C)ccc2n1` (centres unmarked) [Example 440, 3-(4-{[1-(5-{2-[(dimethylamino)methyl]phenyl}thiophen-2-yl)ethyl]amino}-2-methylquinazolin-6-yl)-1,1-dimethylurea], the pIC50 in test [1] is less than 4.70; in test [2], 6.04.

For `Cc1nc(NC(C)c2ccc(Br)s2)c2cc(N3CCN(Cc4ccccc4)C(=O)C3)ccc2n1` (centres unmarked) [Example 441, 1-benzyl-4-(4-{[1-(5-bromothiophen-2-yl)ethyl]amino}-2-methylquinazolin-6-yl)piperazin-2-one], the pIC50 in test [1] is less than 4.70; in test [2] it was 4.82.

Take `COc1cc2nc(C)nc(NC(C)c3ccc(-c4ccc(C)cc4CN(C)C)s3)c2cc1OC` (centres unmarked) [Example 442, N-[1-(5-{2-[(dimethylamino)methyl]-4-methylphenyl}thiophen-2-yl)ethyl]-6,7-dimethoxy-2-methylquinazolin-4-amine]: the figures for the negative logarithm of the IC50 (pIC50) in test [1] and in test [2] were less than 4.70 and 7.35, respectively.

In the case of `COc1cc2nc(C)nc(NC(C)c3ccc(-c4ccc(C5CC5)cc4CN(C)C)s3)c2cc1OC` (centres unmarked) [Example 443, N-[1-(5-{4-cyclopropyl-2-[(dimethylamino)methyl]phenyl}thiophen-2-yl)ethyl]-6,7-dimethoxy-2-methylquinazolin-4-amine], the pIC50 is less than 4.70 in test [1] and 7.16 in test [2].

`COc1cc2nc(C)nc(NC(C)c3ccc(-c4ccccc4C(C)(C)N)s3)c2cc1OC` (centres unmarked) [Example 455, N-[1-{5-[2-(2-aminopropan-2-yl)phenyl]thiophen-2-yl}ethyl]-6,7-dimethoxy-2-methylquinazolin-4-amine]: the pIC50 in test [1] is less than 4.70; in test [2] it was 6.11.

For the compound `COc1cc2nc(C)nc(NC(C)c3ccc(-c4ccccc4CN(C)CC#N)s3)c2cc1OC` (centres unmarked) [Example 456, {[2-(5-{1-[(6,7-dimethoxy-2-methylquinazolin-4-yl)amino]ethyl}thiophen-2-yl)benzyl](methyl)amino}acetonitrile], the pIC50 in test [1] is less than 4.70; in test [2], 6.54.

Take `CNC(=O)Nc1ccc2nc(C)nc(NC(C)c3ccc(-c4ccccc4CN(C)C)s3)c2c1` (centres unmarked) [Example 457, 1-(4-{[1-(5-{2-[(dimethylamino)methyl]phenyl}thiophen-2-yl)ethyl]amino}-2-methylquinazolin-6-yl)-3-methylurea]: the pIC50 is less than 4.70 in test [1] and 6.20 in test [2].
